Measured values taken from US7943644B2, “Stabilization of iodine-containing biocides by means of special azole compounds” (LANXESS Deutschland GmbH, priority 2006, dated 2011).

Experiment: Storage stability of IPBC in Dowanol TPM solution with cobalt dryer and azole stabilizer (HPLC)
Type: physicochemical
Details: 10% by weight IPBC, 5% Octasoligen-Cobalt 8, 5% stabilizer; for Amount of IPBC (start): HPLC at the beginning; for Amount of IPBC (2 weeks, 40° C.): stored at 40° C., HPLC after two weeks
Description: A solution was prepared in Dowanol TPM (tripropylene glycol methyl ether), containing 10% by weight of iodopropargyl butylcarbamate, 5% by weight of Octasoligen-Cobalt 8 (Borchers, Langenfeld, Germany) and 5% by weight of the azole compounds of the formula (I) specified as a stabilizer in Table 1. The mixture was stored at 40° C. The amount of IPBC was determined by means of HPLC at the beginning and after two weeks.

SMILES: Sc1nnc[nH]1 [Example 1]
- Amount of IPBC (start): 10.2%
- Amount of IPBC (2 weeks, 40° C.): 9.0%

SMILES: Oc1nnc(S)[nH]1 [Example 2]
- Amount of IPBC (start): 9.9%
- Amount of IPBC (2 weeks, 40° C.): 8.9%

SMILES: Nc1nnc[nH]1 [Example 3]
- Amount of IPBC (start): 9.7%
- Amount of IPBC (2 weeks, 40° C.): 9.5%

SMILES: Nc1nnc(N)[nH]1 [Example 4]
- Amount of IPBC (start): 9.7%
- Amount of IPBC (2 weeks, 40° C.): 9.7%
